Experimental data reported in patent US7384966B2, “2-arylbenzothiazole derivatives” (Pharminxo Limited, priority 2004, dated 2008).
“Also recorded” adds a separate entry of the source. Read-outs that look alike come from different tables or passages of the source.

Assays:
[1] = test system: NCI in vitro 60 human cancer cell panel; test: NCI in vitro 60 human cancer cell panel, sulforhodamine B assay; type: cell-based
Experimental: Results from the more extensive NCI in vitro 60 human cancer cell panel^15 corroborated the results (above). The mean GI50 values across the range of compounds (above), including the two series of esters (11-21) are an unremarkable 10-100 μM (data not shown); however, these values disguise significant cell selectivity. […] Full NCI mean GI50 graphs for compounds (1,2,3,4,101,102) are included herein as FIGS. 1 and 8 to 12.
The results shown on FIG. 1 were generated by treating the cells with an active agent for 48 hours, in this case compound 1, before determination of viability by sulforhodamine B assay.

[2] = test system: cyp lal; test: Induction of cyp lal protein expression by Western Blot; type: cell-based
Text: These findings have been verified following examination of induction of cyp lal protein expression by Western Blot. The following cell lines were used to represent sensitive models: MCF-7, MDA 468 (breast carcinoma), KM12 and HCC 2998 (colon carcinoma) lines.

[3] = test system: HCC 2998; test: MTT assay, 3 day exposure, HCC 2998; type: cell-based; details: Homo sapiens, HCC 2998, 72 h, HCC 2998 (colon), MTT, 3 day exposure, triplicate; read-out: GI50 values in cell lines, HCC 2998
Experimental: (§1) A range of compounds were evaluated in MTT assays following 3 day exposure against a panel of two human breast cancer cell lines MCF-7 (ER+) and MDA 468 (ER−), and two colon cancer cell lines KM12 and HCC 2998. In general the breast cell lines were more sensitive to the agents and the MDA 468 line the most sensitive of the four (Table 2). The benchmark active compound was 5-fluoro-2-(3,4-dimethoxyphenyl)benzothiazole (1) with GI50 values<0.1 nM against the two breast cell lines. […] The most interesting series of compounds were those combining a 5-fluoro group with two oxygenated substituents in the 3′,4′-positions where minor, seemingly conservative, structural changes were associated with a dramatic variations in activity (when compared to 1). […] In summary, this in vitro screen led to the identification of the fluorinated 2-(3,4-dimethoxyphenyl)benzothiazole structure as a novel antitumor pharmacophore with the 5-fluoro analogue (1) astride a pinnacle of activity.
(§2) The assays/methods used to generate the results referred to herein are well known to those skilled in the art and therefore it has not been necessary to describe them in detail.

[4] = target: T1, cyp lal (Homo sapiens, UniProt P04798); test: Inhibition of cyp lal (EROD) activity, de-ethylation of ethoxyresorufin by cyp lal microsomes; type: biochemical
T1 construct: host or cells: microsomes
T1 sequence (P04798 1-512): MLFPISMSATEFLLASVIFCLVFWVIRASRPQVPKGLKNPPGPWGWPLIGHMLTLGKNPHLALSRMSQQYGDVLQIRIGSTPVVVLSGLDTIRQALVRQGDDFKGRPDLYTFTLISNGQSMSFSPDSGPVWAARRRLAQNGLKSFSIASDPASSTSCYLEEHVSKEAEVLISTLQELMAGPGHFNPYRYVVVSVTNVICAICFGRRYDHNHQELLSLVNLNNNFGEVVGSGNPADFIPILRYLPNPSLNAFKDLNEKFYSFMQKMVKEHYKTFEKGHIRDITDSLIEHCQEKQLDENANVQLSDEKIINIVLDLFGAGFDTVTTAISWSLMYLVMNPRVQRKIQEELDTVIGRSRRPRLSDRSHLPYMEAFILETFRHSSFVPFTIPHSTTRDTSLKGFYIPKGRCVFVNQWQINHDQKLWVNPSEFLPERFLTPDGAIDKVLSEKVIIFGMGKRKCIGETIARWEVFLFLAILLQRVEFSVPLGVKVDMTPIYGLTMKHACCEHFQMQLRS
Experimental: Compound 1 inhibits cyp lal (EROD) activity in a dose dependent manner (IC50=8 μM; FIG. 4).
The results shown in FIG. 4 were generated by measuring the de-ethylation of ethoxyresorufin by cyp lal microsomes in the absence and the presence of increasing concentrations of compound 1. DF 203 was used as a positive control.

[5] = test system: KM 12; test: MTT assay, 3 day exposure, KM12; type: cell-based, human; details: KM 12 (colon), read-out: GI50 values in cell lines, KM 12
Experimental: as §1, §2

[6] = test system: cyp lal; test: Induction of cyp lal gene transcription; type: cell-based
Experimental: These cell lines are known to be sensitive to compound 1 and 2-(4-amino-3-methylphenyl)-5-fluorobenzothiazole (102, 5F 203; NSC 703786; WO 95/06469) In cell lines which are sensitive to compound 1 only, cyp lal gene transcription was not induced.
The results shown in FIG. 2 were generated by treating the cells with 1 μM of an active agent for 24 hours before determination of changes in cyp lal gene expression.

[7] = test system: cyp lbl; test: Induction of cyp lbl gene transcription; type: cell-based
[8] = test system: MCF-7; test: MTT assay, 3 day exposure, MCF-7; type: cell-based; details: Homo sapiens, read-out: GI50 values in cell lines, MCF-7
Experimental: as §1, §2

[9] = test system: MDA 468; test: MTT assay, 3 day exposure, MDA 468; type: cell-based; details: Homo sapiens, MDA 468 (breast), read-out: GI50 values in cell lines, MDA 468
Experimental: as §1, §2

[10] = test system: DNA of MCF-7, MDA 468, KM12 and HCC 2998 cells; test: DNA adduct formation; type: cell-based, human; details: MCF-7, MDA 468, KM 12 and HCC 2998 cells; 10 μM, 24 hours
[11] = test system: MCF-7, MDA 468, KM12 and HCC 2998; test: MTT assay, panel of four cell lines, results in words; type: cell-based, human; details: compared to compound 1
Experimental: as §1

[12] = Homo sapiens, KM12, 72 h, MTT, 3 day exposure, triplicate
[13] = MCF7, 72 h, MCF-7 (breast), MTT, 3 day exposure, triplicate
[14] = MCF7, MCF-7 (breast), value in nM
[15] = 72 h, MTT, 3 day exposure, triplicate

| induction of cyp lal protein ([2]; colon cell lines KM12 and HCC 2998) | GI50 [3] [nM] | IC50 [4] [µM] | induction of cyp lal gene transcription ([6]; cell lines which are sensitive to compound 1 only) | induction of cyp lbl gene transcription [7] | induction of cyp lbl transcription ([7]; certain compound 1-sensitive colon and lung carcinoma cells) | GI50 [8, 13] [nM] | GI50 [8, 14] [nM] | melting point [°C] | Structure (SMILES) | GI50 ([1]; Homo sapiens, colon and NSCL sub-panels, 48 hours, read-out: GI50 values against some cell lines) [nM] | induction of cyp lal protein ([2]; lysates of MCF-7 and MDA 468 breast cells) | GI50 [5, 12] [nM] | induction of cyp lal gene transcription ([6]; MCF-7, T-47D, TK-10, NC1 and 1460 cells, 1 μM, 24 hours) | GI50 [9, 15] [nM] | GI50 ([9]; value in nM) [nM] | sensitivity of cancer cell panels / antitumour activity in vitro ([1]; NCI mean GI50 graphs, FIGS. 1 and 8 to 12) | DNA adducts formed [10] | GI50 ([5]; value in nM) [nM] | growth inhibitory potency in words [11] |
| --- | --- | --- | --- | --- | --- | --- | --- | --- | --- | --- | --- | --- | --- | --- | --- | --- | --- | --- | --- |
| not induced | 0.25 | 8 | not induced | can be induced | no induction of cyp-lbl transcription | < 0.1 | < 0.1 |  | COc1ccc(-c2nc3cc(F)ccc3s2)cc1OC [Compound 1, 2-(3,4-dimethoxyphenyl)-5-fluorobenzothiazole] | < 10 | Induction of cyp lal protein was observed | 290 | able to induce cyp lal gene transcription | < 0.1 | < 0.1 |  |  |  |  |
|  |  |  |  |  |  | 5 | 2.9 | 129 | COc1ccc(-c2nc3c(F)cccc3s2)cc1OC [Compound 2, 4-Fluoro-2-(3,4-dimethoxyphenyl)benzothiazole] |  |  | 850 |  | 5 | 3.4 | reduced activity against cancer cells when compared to compound 1; also recorded: substantial potent and selective antitumour activity; also recorded: potent (but attenuated compared to 1), activity in the colon and NSCL sub-panels | One major adduct species | 78.4 | retained nanomolar growth inhibitory potency against one or more of the cell lines |
